From patent publication US7169568B2, “Method for screening molecules that exert a neurotrophic effect through activation of neurotrophin receptors” (New York University, priority 2000, dated 2007)

How the values were obtained:
TrkB receptors = assay: Trk receptor phosphorylation in primary E17 hippocampal neurons (immunoprecipitation, anti-phosphotyrosine Western blot); format: cell-based, rat; conditions: two hours
Experimental: FIGS. 4A and 4B show Western blots on adenosine activation of Trk receptors in hippocampal neurons. Primary cultures of E17 hippocampal neurons were prepared as described in the Materials and Methods of Example 1 and treated with (FIG. 4A) CGS 21680 (10 nM) or BDNF (1 ng/ml) for various times and (FIG. 4B) either adenosine (10 μM), CGS 21680 (10 nM), CPA (10 nM) or BDNF (10 ng/ml) for 2 hr. Activation of TrkA receptors was assessed by immunoprecipitation and Western blotting with anti-phosphotyrosine antibody.
(§1) Immunoprotection and Immunoblotting. PC12 cells or PC12-615 cells (Hempstead et al, 1992), were maintained in Dulbecco's Modified Eagle's Medium (DMEM) containing 10% fetal bovine serum (FBS) supplemented with 100 units/ml penicillin, 100 μg/ml streptomycin, and 2 mM glutamine plus 200 μg/ml G418. Cells were placed in low serum medium (1% FBS, 0.5% horse serum) overnight prior to experiments. Cell lysates from PC12, 615 cells, or hippocampal cells were incubated in lysis buffer (1% NP40) for 4 hours to overnight at 4° C. with anti-pan-Trk polyclonal antibody, followed by incubation with protein A-Sepharose beads. Equivalent amounts of protein were analyzed for each condition. The beads' were washed five times with lysis buffer and the immune complexes were boiled in SDS-sample buffer and loaded on sodium dodecyl sulfate-polyacrylamide electrophoresis (SDS-PAGE) gels for immunoblot analysis. The immunoreactive protein bands were detected by ECL reagents based upon enhanced chemiluminescence procedure (Amersham Pharmacia).
Hippocampal Cell Cultures. Dissociated primary cultures of hippocampal neurons from embryonic day 17 (E17) rats were prepared from timed-pregnant Sprague-Dawley rats as described previously (Aibel et al, 1998). Fetuses were removed under sterile conditions and kept in PBS on ice for microscopic dissection of the hippocampus. The meninges were removed and the tissue was placed in Neurobasal media (Gibco BRL). […] Cells were counted and then plated on culture wells coated with 0.01 mg/ml poly-D-lysine overnight. […]

Akt = Akt activation in PC12 cells (anti-phospho Akt immunoblot); format: cell-based; conditions: PC12 cells; adenosine 10 μM; CGS 21680 data not shown
Experimental: as §1, with “PC12 cells (615) were treated with adenosine (10 μM) for various times in the presence or absence of […] (100 nM) or LY294002 (10 μM). The cells were subsequently harvested in lysis buffer; lysates and immunoprecipitated samples were subsequently immunoblotted with anti-phospho MAP kinase, anti-phospho Akt, and anti-phosphotyrosine. Reprobing with anti-MAP kinase and anti-pan-Trk antibodies was carried out to ensure equal protein loading. To assess the activity of Akt, endogenous Akt can be immunoprecipitated from lysates with anti-Akt and the proteins assayed in Western blots with anti-phospho-Akt antibodies. Use of the anti-Akt antibody versus the anti-phospho-Akt antibody on lysates can give a comparative assessment of the relative level of the enzyme and extent of activation (Kim et al., 2001). […]” for “Immunoprotection”

TrkA = TrkA (Homo sapiens, UniProt P04629); assay: 125I-NGF equilibrium binding, HEK 293 cells expressing TrkA; design: expressed in transfected cells; host or cells: HEK 293 cells; conditions: for Specific Binding of 125I-NGF: 293/TrkA, 1 μM, 30 minutes at 25° C., control 39076 +/− 2885; for Displacement of 125I-NGF binding: 293 cells that expressed TrkA, excess concentrations
Experimental: ^125I-NGF Binding Analysis. For equilibrium binding studies, ^125I-NGF was prepared as described previously (Hempstead et al, 1989). PC12 cells stably overexpressing TrkA (2×10^5 cells) and HEK 293 cells expressing TrkA (2×10^5) were incubated with ^125I-NGF in the absence and presence of adenosine compounds for 30 minutes at 25° C. The cells were then washed twice with PBS, and ^125I-NGF stripped with an acid solution (0.2 M acetic acid, 0.5 M NaCl). Nonspecific binding was assessed by adding unlabeled NGF at a final concentration of 1000 ng/ml and represented less than 20% of total binding. Specific binding was defined as total binding minus nonspecific binding. All conditions were carried out in triplicate and SEM calculated.

TrkA, sequence (P04629 33-796, species assumed): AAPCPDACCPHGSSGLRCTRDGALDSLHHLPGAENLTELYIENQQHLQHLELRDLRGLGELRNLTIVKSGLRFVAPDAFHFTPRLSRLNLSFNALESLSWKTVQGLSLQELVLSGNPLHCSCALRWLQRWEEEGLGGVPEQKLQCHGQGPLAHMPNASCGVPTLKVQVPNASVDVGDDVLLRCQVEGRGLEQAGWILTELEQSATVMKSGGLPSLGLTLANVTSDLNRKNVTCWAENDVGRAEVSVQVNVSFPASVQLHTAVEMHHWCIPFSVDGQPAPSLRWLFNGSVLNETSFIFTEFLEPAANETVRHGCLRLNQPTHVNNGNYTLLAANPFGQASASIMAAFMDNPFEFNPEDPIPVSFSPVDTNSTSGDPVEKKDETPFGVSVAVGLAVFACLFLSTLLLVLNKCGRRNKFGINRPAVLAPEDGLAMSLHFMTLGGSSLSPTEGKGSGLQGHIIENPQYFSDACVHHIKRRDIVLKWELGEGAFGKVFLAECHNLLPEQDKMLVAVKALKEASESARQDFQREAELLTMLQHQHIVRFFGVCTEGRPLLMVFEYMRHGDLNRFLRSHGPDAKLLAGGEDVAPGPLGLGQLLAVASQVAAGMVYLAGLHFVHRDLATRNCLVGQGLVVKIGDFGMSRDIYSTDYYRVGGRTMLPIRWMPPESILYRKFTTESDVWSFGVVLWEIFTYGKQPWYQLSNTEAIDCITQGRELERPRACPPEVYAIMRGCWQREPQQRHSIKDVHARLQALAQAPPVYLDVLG

| SMILES | Phosphorylation of TrkB receptors (TrkB receptors; 10 μM) | Activation of Akt (phospho-specific antibody) (Akt) | Specific Binding of 125I-NGF (TrkA) | Displacement of 125I-NGF binding (TrkA) | Phosphorylation of TrkB receptors (TrkB receptors; 10 nM) |
| --- | --- | --- | --- | --- | --- |
| Nc1ncnc2c1ncn2[C@@H]1O[C@H](CO)[C@@H](O)[C@H]1O [adenosine] | gave rise to phosphorylated TrkB receptors | able to activate Akt | 36618 +/− 4185 | did not displace | – |
| CCNC(=O)[C@H]1O[C@@H](n2cnc3c(N)nc(NCCc4ccc(CCC(=O)O)cc4)nc32)[C@H](O)[C@@H]1O [CGS 21680, 2-[(4-(2-carboxyethyl)phenylethyl)]aminoadenosine-5′-N-ethylcarboxamide] | – | able to activate Akt | 39568 +/− 2032 | did not displace | gave rise to phosphorylated TrkB receptors |
